From patent US6784177B2, “Methods using hydralazine compounds and isosorbide dinitrate or isosorbide mononitrate” (Nitro Med, Inc., priority 1999, dated 2004)
Read-outs that look alike come from different tables or passages of the source.

Assays:
[1] = system: male patients with heart failure; assay: V-HeFT II mortality (Kaplan-Meier, log-rank); type: in vivo, human
Excerpt: (§1) Drug administration was double-blind.

[2] = system: male patients with heart failure; assay: V-HeFT II hospitalization; type: in vivo, human
Excerpt: as §1

[3] = system: male patients with heart failure; assay: V-HeFT II peak exercise oxygen consumption (MVO2), bicycle-ergometer exercise test; type: in vivo, human
Method: “Oxygen consumption” was measured during a progressive maximal bicycle-ergometer exercise test taken while the expired air was collected continuously to monitor oxygen consumption. […] Patients with pulmonary diseases, obstructive valvular diseases and the like, tend to have a low oxygen consumption. An increase in a patient's oxygen consumption typically results in the patient's increased exercise tolerance and implies that the patient would have an improved quality of life.
as §1

[4] = system: male patients with heart failure; assay: V-HeFT II quality of life, Heart Condition Assessment (HCA) questionnaire; type: in vivo, human; settings: black patients, at 12 months, negative = improved, positive = worsened, p=0.043
Method: “Quality of life” refers to one or more of a persons ability to walk, climb stairs, do errands, work around the house, participate in recreational activities, and/or not requiring rest during the day, and/or the absence of sleeping problems or shortness of breath. The quality of life was measured using the Heart Condition Assessment (HCA) questionnaire. The questionnaire was self-administered after brief standardization instructions. The score was obtained by summing the ranks of the responses to each question.
as §1

[5] = system: male patients with heart failure; assay: V-HeFT II change in systolic blood pressure; type: in vivo, human
Excerpt: as §1

[6] = system: male patients with heart failure; assay: V-HeFT II change in radionuclide left ventricular ejection fraction; type: in vivo, human; settings: both racial groups
Excerpt: as §1

[7] = system: male patients with heart failure; assay: V-HeFT II change in plasma norepinephrine (radioenzymatic assay); type: in vivo, human; settings: either racial group
Excerpt: as §1

[8] = system: male patients with heart failure; assay: V-HeFT II change in radiographic cardiothoracic ratio; type: in vivo, human; settings: white patients
Excerpt: as §1

[9] = system: black and white subgroups; assay: black:white relative risk in placebo and enalapril groups (trial not named); type: in vivo, human; settings: enalapril group; placebo group 1.15
[10] = system: male patients with heart failure; assay: V-HeFT I hospitalization; type: in vivo, human
Excerpt: as §1

[11] = system: male patients with heart failure; settings: V-HeFT I
Method: Baseline measurements were restricted to the test done at the time of randomization. Change in measurements from baseline were compared between black and white patients using t-tests performed for each scheduled follow-up. […] Survival curves were compared by the log-rank test. Survival in black and white patients was further analyzed by presence or absence of a history of hypertension.
In the present invention, an interaction analysis between race and treatment was performed for both V-HeFT I and II, adjusting for baseline imbalances.
Male patients were screened for participation in the study on the basis of a history of heart failure or documentation of left ventricular enlargement or dysfunction by chest radiography, echocardiography or radionuclide ventriculography. The specific ventricular imaging requirement for entry was one of the following: a radiographic cardiothoracic ratio >0.55, an echocardiographic left ventricular end-diastolic diameter >2.7 cm/m^2 body surface area or radionuclide left ventricular ejection fraction <0.45. In addition, patients were eligible for entry only if they had reduced maximal exercise tolerance. This was defined as a measured peak oxygen consumption (VO2)<25 ml/kg per min during a progressive bicycle ergometer exercise test.
Nearly all patients were receiving background therapy with diuretic and/or digoxin. […] Full doses of the vasodilator regimens in V-HeFT I were prazosin 5 mg four times daily, the combination of hydralazine 75 mg and isosorbide dinitrate 40 mg four times daily, or placebo. […] Drug administration was double-blind. All patients were studied for the duration of the trial and for a minimum of 6 months or until death.

CCOC(=O)[C@H](CCc1ccccc1)N[C@@H](C)C(=O)N1CCC[C@H]1C(=O)O [enalapril]
deaths among treated patients ([1]; black patients, of 106 on enalapril, of 109 on hydralazine-isosorbide dinitrate): 39
annual mortality rate (AMR) ([1]; black patients, p=NS): 12.8%
mortality reduction with enalapril compared to hydralazine and isosorbide dinitrate ([1]; white patients with a history of hypertension, p<0.02): significant mortality reduction
annual mortality rate (AMR) ([1]; white patients, log rank p=0.02): 11.0%
deaths among treated patients ([1]; white patients, of 292 on enalapril, of 282 on hydralazine-isosorbide dinitrate): 90
mortality reduction with enalapril compared to hydralazine and isosorbide dinitrate ([1]; whites or blacks without hypertensive history, blacks with hypertensive history): did not differ
patients hospitalized for CHF (%) ([2]; black patients): 22.6%
patients hospitalized for any reason (%) ([2]; black patients): 61.3%
patients hospitalized for CHF (%) ([2]; white patients): 17.5%
patients hospitalized for any reason (%) ([2]; white patients): 62.0%
mean improvement (increase) from baseline in MVO2, adjusted for differences in baseline characteristics ([3]; black patients, 12 months, p=0.15): 0.010 mL/kg/min
decrease from baseline in MVO2 ([3]; black patients, 12 months, unadjusted, p=0.19): 0.047 mL/kg/min
effect on oxygen consumption (MVO2) ([3]; both black and white patients, 13 weeks): did not improve
quality of life score (HCA questionnaire) [4]: +1.04
systolic blood pressure after the initial fall ([5]; black patients): recovered by 13 weeks
systolic blood pressure after the initial fall ([5]; white patients, 4.5 years of follow-up): remained lower thereafter
radionuclide ejection fraction (EF) response [6]: rose
change in plasma norepinephrine (PNE) [7]: not apparent
reduction in radiographic heart size (cardiothoracic ratio) during follow-up [8]: persisted through 3 years
black:white relative risk [9]: 1.34

COc1cc2nc(N3CCN(C(=O)c4ccco4)CC3)nc(N)c2cc1OC [prazosin]
patients hospitalized for CHF (%) ([10]; black patients): 23. %
patients hospitalized for any reason (%) ([10]; black patients): 40.4%
patients hospitalized for CHF (%) ([10]; white patients): 31.5%
patients hospitalized for any reason (%) ([10]; white patients): 35.4%
annual mortality rate (AMR) ([11]; black patients, placebo AMR 17.3%): 15.4%
treatment benefit on survival ([11]; white patients, vs placebo (FIG. 2B)): absence of demonstrable treatment benefit
annual mortality rate (AMR) ([11]; white patients, placebo AMR 18.8%, p=NS): 22.1%
